Legend:
Experiment in all cases: relative viability (nuclei count vs DMSO), 5 days (fraction); higher = more cells survive
Imatinib + Dasatinib = compound: Cc1ccc(NC(=O)c2ccc(CN3CCN(C)CC3)cc2)cc1Nc1nccc(-c2cccnc2)n1 [Imatinib] + Cc1nc(Nc2ncc(C(=O)Nc3c(C)cccc3Cl)s2)cc(N2CCN(CCO)CC2)n1 [Dasatinib] (partner 0.075 µM)
Method in brief: (§1)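 Each reported value is a median over duplicate plates. It expresses relative viability: treated-well nuclei count divided by vehicle-well nuclei count. Lung cancer cell lines in 1536-well plates were dosed by pin tool a day after seeding, alone with one drug or with a fixed anchor-drug dose plus five library-drug doses (not always all listed) in √10 steps, and nuclei were counted after 5 days.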

Imatinib + Decitabine = compound: Cc1ccc(NC(=O)c2ccc(CN3CCN(C)CC3)cc2)cc1Nc1nccc(-c2cccnc2)n1 [Imatinib] + Nc1ncn([C@H]2C[C@H](O)[C@@H](CO)O2)c(=O)n1 [Decitabine] (partner 2 µM)
Method in brief: as §1

Imatinib + Bortezomib = compound: Cc1ccc(NC(=O)c2ccc(CN3CCN(C)CC3)cc2)cc1Nc1nccc(-c2cccnc2)n1 [Imatinib] + CC(C)C[C@H](NC(=O)[C@H](Cc1ccccc1)NC(=O)c1cnccn1)B(O)O [Bortezomib] (partner 0.002 µM)
Method in brief: as §1

Imatinib = compound: Cc1ccc(NC(=O)c2ccc(CN3CCN(C)CC3)cc2)cc1Nc1nccc(-c2cccnc2)n1 [Imatinib]
Method in brief: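 MetaXpress counted nuclei in 4× images of lung cancer cell lines that had been fixed, permeabilised and Hoechst-stained in one step. Before that, cells in 1536-well plates were kept overnight at 37 °C, pinned with five √10-spaced library-drug doses on vehicle-anchored plates, and cultured 5 days without medium change. Viability takes treated-well nuclei over vehicle-well nuclei and uses the median across plates. Plates were accepted only at control CV below 25% and at least one doubling.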

Cell Line	relative viability (Imatinib + Dasatinib; first compound 0.02 µM)	relative viability (Imatinib + Dasatinib; first compound 0.06325 µM)	relative viability (Imatinib + Dasatinib; first compound 0.2 µM)	relative viability (Imatinib + Dasatinib; first compound 0.6325 µM)	relative viability (Imatinib + Dasatinib; first compound 2 µM)	relative viability (Imatinib + Decitabine; first compound 0.02 µM)	relative viability (Imatinib + Decitabine; first compound 0.06325 µM)	relative viability (Imatinib + Decitabine; first compound 0.2 µM)	relative viability (Imatinib + Decitabine; first compound 0.6325 µM)	relative viability (Imatinib + Decitabine; first compound 2 µM)	relative viability (Imatinib + Bortezomib; first compound 0.02 µM)	relative viability (Imatinib + Bortezomib; first compound 0.06325 µM)	relative viability (Imatinib + Bortezomib; first compound 0.2 µM)	relative viability (Imatinib + Bortezomib; first compound 0.6325 µM)	relative viability (Imatinib + Bortezomib; first compound 2 µM)	relative viability (Imatinib; 0.02 µM)	relative viability (Imatinib; 0.06325 µM)	relative viability (Imatinib; 0.2 µM)	relative viability (Imatinib; 0.6325 µM)	relative viability (Imatinib; 2 µM)
NCI-H322M	0.245	0.259	0.248	0.237	0.253	0.751	0.692	0.661	0.655	0.756	1.16	1.34	1.26	1.1	1.1	0.988	1.05	0.99	0.831	0.944
NCI-H441	0.713	0.619	0.693	0.745	0.546	0.252	0.234	0.249	0.26	0.268	1.12	0.616	0.543	0.439	0.435	1.06	0.969	1.2	0.885	–
NCI-H460	0.678	0.675	0.649	0.456	0.493	0.603	0.333	0.63	0.511	0.575	1.5	1.33	1.7	0.92	–	1.1	0.985	1.11	0.925	1
NCI-H520	0.158	0.213	0.206	0.186	0.169	0.531	0.514	0.532	0.508	0.487	0.781	0.639	0.476	0.558	0.512	1.11	1.15	0.907	0.882	0.938
NCI-H596	0.597	0.582	0.831	0.499	0.641	1.12	1.01	1.17	–	0.971	1.2	1.02	–	0.944	–	–	0.903	1.03	1.01	0.907
NCI-H647	0.198	0.183	0.142	0.181	0.148	0.454	0.432	0.421	0.366	0.37	1.11	1.11	1.73	1.02	0.872	0.976	1.05	1.12	0.991	0.962
NCI-H650	0.5	0.425	0.488	0.53	0.406	0.299	0.36	0.291	0.313	0.262	0.893	0.823	0.805	1.03	0.616	1	0.779	1.02	1.1	0.824
NCI-H661	1.09	0.57	0.753	0.958	0.769	0.597	0.592	0.532	0.585	0.613	0.81	0.613	0.821	0.607	0.852	0.977	0.962	0.994	0.969	0.982
NCI-H727	0.433	–	0.331	0.234	0.463	–	–	0.904	0.84	0.808	0.93	0.812	–	0.868	0.745	0.818	0.676	0.957	1.08	0.938
NCI-H838	0.268	0.307	0.3	0.297	0.358	0.464	0.497	0.469	0.488	0.424	1.04	0.823	0.947	1	0.886	1.03	1.09	–	1	1.01
NCI-H1355	0.766	–	0.659	0.696	0.678	0.359	–	0.35	0.345	0.35	1.26	–	1.31	1.13	1.18	1.05	–	1.08	0.978	0.99
NCI-H1437	0.444	0.309	0.409	0.25	0.334	0.587	0.664	0.597	0.629	0.578	0.697	0.528	0.541	0.432	0.547	1.11	–	1.12	1.04	0.957
NCI-H1650	0.371	0.262	0.326	0.285	0.261	0.476	0.367	0.42	0.371	0.425	0.211	0.204	0.22	0.22	0.233	0.919	0.778	1.03	0.922	0.993
NCI-H1651	0.333	0.355	0.427	0.378	0.414	0.56	0.297	0.643	0.591	0.599	1.03	0.83	0.964	0.955	0.893	1.1	0.876	1.03	0.967	0.948
NCI-H1666	0.83	0.838	0.825	0.792	0.697	0.699	0.716	0.779	0.796	0.727	0.76	0.796	0.837	0.859	0.652	–	0.958	0.98	1.15	1.01
NCI-H1734	0.478	0.457	0.45	0.442	0.427	0.522	–	0.573	0.486	0.533	1.3	–	1.02	0.938	–	1.04	–	1.09	0.996	0.876
NCI-H1755	0.415	0.392	0.41	0.422	0.408	0.689	0.693	0.702	0.708	0.69	1.13	1.09	1.03	–	0.928	1.08	0.988	–	0.958	1.01

Cell Line	relative viability (Imatinib + Dasatinib; first compound 0.02 µM)	relative viability (Imatinib + Dasatinib; first compound 0.06325 µM)	relative viability (Imatinib + Dasatinib; first compound 0.2 µM)	relative viability (Imatinib + Dasatinib; first compound 0.6325 µM)	relative viability (Imatinib + Dasatinib; first compound 2 µM)	relative viability (Imatinib + Decitabine; first compound 0.02 µM)	relative viability (Imatinib + Decitabine; first compound 0.06325 µM)	relative viability (Imatinib + Decitabine; first compound 0.2 µM)	relative viability (Imatinib + Decitabine; first compound 0.6325 µM)	relative viability (Imatinib + Decitabine; first compound 2 µM)	relative viability (Imatinib + Bortezomib; first compound 0.02 µM)	relative viability (Imatinib + Bortezomib; first compound 0.06325 µM)	relative viability (Imatinib + Bortezomib; first compound 0.2 µM)	relative viability (Imatinib + Bortezomib; first compound 0.6325 µM)	relative viability (Imatinib + Bortezomib; first compound 2 µM)	relative viability (Imatinib; 0.02 µM)	relative viability (Imatinib; 0.06325 µM)	relative viability (Imatinib; 0.2 µM)	relative viability (Imatinib; 0.6325 µM)	relative viability (Imatinib; 2 µM)
NCI-H1792	0.847	0.429	0.769	0.596	0.666	0.573	0.496	0.576	–	0.449	1.21	0.951	0.675	0.861	0.935	0.946	0.921	1.03	0.948	0.87
NCI-H1915	0.298	–	0.368	0.312	0.305	0.257	–	0.281	0.276	0.243	1.04	–	–	–	–	1.09	–	1.02	1.03	0.967
NCI-H1975	0.426	0.262	0.38	0.371	0.259	0.365	0.373	0.369	0.38	0.365	0.484	0.437	0.338	0.304	0.356	1.04	0.951	0.94	0.964	0.94
NCI-H1993	0.678	0.564	0.573	0.522	0.521	0.629	0.718	0.662	0.643	0.528	–	–	0.954	1.11	1.02	0.89	0.8	1.08	0.886	0.925
NCI-H2009	0.282	–	0.304	0.253	0.288	0.434	0.346	0.346	0.425	0.363	1.05	0.476	1.08	1	0.906	1.08	0.728	1.09	1.05	0.977
NCI-H2023	0.751	0.33	0.565	0.591	0.509	0.228	0.252	0.24	0.22	0.223	1.08	0.425	1.16	0.925	1.02	1.06	0.78	1.14	–	0.985
NCI-H2085	–	0.18	0.248	0.208	0.228	0.529	0.556	0.513	0.61	0.527	1.05	0.902	1.08	1.13	1.04	–	0.826	1.01	1.04	1.02
NCI-H2087	0.817	–	0.949	0.89	–	0.291	–	0.251	0.283	–	0.868	0.963	0.689	0.727	0.604	1.11	–	1.13	1.16	–
NCI-H2126	0.705	–	0.537	0.457	0.517	0.545	0.522	0.634	0.58	0.538	1.12	–	1.19	1.05	1.12	1.02	0.696	1.08	0.955	0.936
NCI-H2347	0.317	0.266	0.256	0.283	0.251	0.58	–	0.653	0.615	0.632	0.846	–	1.04	1	0.876	1.09	0.825	1.13	1.07	0.977
NCI-H2405	0.22	–	0.203	0.217	0.192	0.707	0.636	0.848	0.724	0.722	–	0.857	0.92	1.01	0.983	–	0.721	1.02	0.927	1
NCI-H3122	–	0.518	0.921	0.894	0.808	0.44	0.467	0.441	0.439	0.375	0.985	1.06	1.04	0.96	1.05	1.02	–	1.1	1.03	1.08
PC-3 [JPC-3]	1.1	–	0.955	0.931	0.778	0.861	–	–	0.776	0.84	0.887	–	0.832	0.864	0.711	1.07	–	1.09	1.11	0.972
PC-14	0.221	0.201	0.2	0.196	0.239	0.253	0.244	0.249	0.199	0.208	0.923	0.911	0.96	0.949	0.844	1.08	0.726	1.17	1	0.953
RERF-LC-KJ	0.927	0.602	0.987	0.771	0.841	0.755	0.558	0.655	–	0.754	1.13	1.1	1.32	–	0.909	1.1	0.884	1.06	0.985	0.953
SK-LU-1	0.16	0.212	0.162	0.181	0.186	0.686	0.543	0.588	0.598	0.645	1.59	1.22	1.31	1.1	1.26	1.08	–	1.15	–	1.11
SW 1573	0.525	0.314	0.604	0.517	0.531	0.646	0.4	0.575	0.471	0.437	1.05	1.43	1.2	1.03	1.12	1.16	0.79	1.13	1.01	1.02
